Data taken from patent EP0218359A1, “Conditioning natural gas streams with preferential physical solvents” (EL PASO HYDROCARBONS COMPANY, priority 1985, dated 1987).

Key:
Assay type in all cases: physicochemical
[1] = relative volatility of methane over ethane in the presence of the solvent
Description: (§1) The preferential factor for physical solvent selection for the Mehra Process is defined as a product of relative volatility of methane over ethane multiplied by the solubility of ethane in physical solvents, specified as normal cubic meters of ethane per cubic meter of solvent.

[2] = solubility of hydrocarbons in the solvent (hydrocarbon loading capacity); conditions: normal cubic meters of gaseous hydrocarbons per cubic meter of the solvent
Description: as §1

[3] = preferential factor (relative volatility of methane over ethane multiplied by solubility of ethane in solvent); conditions: relative volatility of methane over ethane x solubility of ethane in solvent
Description: The preferential physical solvents are defined for the purposes of this invention as having a minimum relative volatility of methane over ethane of at least 5.0 (thereby defining its improved selectivity toward ethane over methane) and in addition a solubility of at least 1.77 normal cubic meters of gaseous hydrocarbons per cubic meter of the solvent (Nm^3/m^3) (thereby defining its hydrocarbon loading capacity), or, alternatively, a preferential factor of at least 8.85. The preferential factor for physical solvent selection for the Mehra Process is defined as a product of relative volatility of methane over ethane multiplied by the solubility of ethane in physical solvents, specified as normal cubic meters of ethane per cubic meter of solvent. […] This combination of minimum relative volatility and minimum solubility enables solvent flow rate variations and operating pressure and temperature variations to be selectively 'utilized in the Mehra Process for flexibly producing liquid products having selected hydrocarbon compositions.
Relative Volatilities of Ethane/Methane, Solubilities of Ethane in Solvent, and combined Preferential Factors are given in the following Table II for NMP, DMF, a common lean oil, the minimum solvent having desired requirements for Mehra Process applications, DMPEG, mesitylene, and the ideal solvent in the Mehra Process. […]

Compound	relative volatility for methane with respect to ethane [1]	solubility of hydrocarbons [2]	preferential factor [3]
CN1CCCC1=O [NMP, N-methyl pyrrolidone]	5.3	0.2 Nm^3/m^3	1.1
dimethyl ether of polyethylene glycol [DMPEG]	6.4	7.0 Nm^3/m^3	45
